“Also recorded” adds a separate entry of the source. Like-named read-outs stand apart in the source and are kept apart here. Each block holds one molecule with its values, some of them ahead of it.
What was measured:
[1] = system: mTORC1 pathway in tuberous sclerosis (TSC2) negative (TSC−/−) MEF cells; assay: Western blot, mTORC1 pathway in TSC−/− MEF cells; format: cell-based, mouse
Procedure: (§1) The methods employed were substantially similar to those described above. Compounds were evaluated in PC3 cells, Jurkat cells, wild-type mouse embryotic fibroblast (MEF) cells, tuberous sclerosis 2 (TSC2) negative (TSC −/−) MEF cells, and tuberous sclerosis 2 (TSC2) positive (TSC +/+) MEF cells. Cells were incubated with compounds of the present invention for various time periods (e.g., 5 minutes, 15 minutes, 30 minutes, 90 minutes, 24 hours, or 48 hours), and evaluated according to known methodologies, such as those herein described.

[2] = system: mTORC2 (Akt phosphorylation) in TSC−/− MEF cells; assay: Western blot, mTORC2 pathway (pAkt) in TSC−/− MEF cells; format: cell-based, mouse
Procedure: as §1

[3] = system: mTORC1 over mTORC2; assay: mTORC1 selectivity over mTORC2 at 24 hrs (Western blot based pS6K1 and pAKT assay); format: cell-based; conditions: 24 hrs
[4] = system: mTORC2 (Akt phosphorylation) in wild-type MEF cells; assay: Western blot, mTORC2 pathway (pAkt) in wild-type MEF cells; format: cell-based, mouse; conditions: 24 hours
Procedure: as §1

[5] = system: mTORC1 pathway in wild-type MEF cells; assay: Western blot, mTORC1 pathway in wild-type MEF cells; format: cell-based, mouse; conditions: 24 hours
Procedure: as §1

[6] = system: mTORC2 pathway (Akt phosphorylation) in PC3 cells; assay: Western blot, mTORC2 pathway (pAkt) in PC3 cells; format: cell-based; conditions: for inhibition of mTORC2 (Akt phosphorylation): 24 hours
How it was run: (§2)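 Triton lysates analysed by Western blot for pS6K1 and pAkt, detected with IRDye 800 anti-rabbit secondary on a Li-Cor imager.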

[7] = system: pS6K1 (p-p70 S6 Kinase (Thr389)) in MCF-7 cells; assay: AlphaLISA Ultra pS6K1 Assay; format: cell-based; conditions: Homo sapiens, 1.5 h; MCF7 cells, 90 min
How it was run: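 MCF-7 cells were seeded for 20–24 h, refed with fresh medium for 2 h, then treated with compound for 90 min at 0.5% final DMSO. Lysates were frozen at −80 °C, thawed and assayed by AlphaLISA with acceptor then donor beads, 2 h each.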

[8] = system: mTORC2 (Akt phosphorylation) in TSC+/+ MEF cells; assay: Western blot, mTORC2 pathway (pAkt) in TSC+/+ MEF cells; format: cell-based, mouse; conditions: 90 minutes
Procedure: as §1

[9] = system: 4E-BP1 phosphorylation in PC3 cells; assay: Western blot, 4E-BP1 phosphorylation in PC3 cells; format: cell-based; conditions: 24 hours
[10] = system: mTORC1 pathway in tuberous sclerosis 2 (TSC2) positive (TSC+/+) MEF cells; assay: Western blot, mTORC1 pathway in TSC+/+ MEF cells; format: cell-based, mouse
Procedure: as §1

[11] = system: mTORC1 pathway (pS6K1 T389) in PC3 cells; assay: Western blot, mTORC1 pathway (pS6K1) in PC3 cells; format: cell-based
How it was run: as §2

[12] = system: IFN-γ production; assay: IFN-γ production in allogenic mixed lymphocyte reaction; format: cell-based; conditions: for IC50: read-out: IFN-γ Inhibition IC50s
Procedure: Assessment of Effect on IFN-γ Production in Allogenic Mixed Lymphocyte Reaction
The effect of rapamycin, everolimus, I-29, and I-117 on IFN-y production was evaluated in an allogenic mixed lymphocyte reaction (E.g., Eleftheriadis, T. et al., Int. J. Mol. Med., 37(5): 1412-20 (2016) https://doi.org/10.3892/ijmm.2016.2547).

[13] = system: mTORC1 pathway in Jurkat cells; assay: Western blot, mTORC1 pathway in Jurkat cells; format: cell-based; conditions: 24 hrs
Procedure: as §1

[14] = system: mTORC2 (Akt phosphorylation) in Jurkat cells; assay: Western blot, mTORC2 pathway (pAkt) in Jurkat cells; format: cell-based; conditions: 24 hrs
Procedure: as §1

[15] = system: Lmn−/− mice; conditions: short-term treatment; cited from earlier work
[16] = system: AKT (PKB) Ser473 phosphorylation; conditions: human adipocytes, 0.01 μM; cited from earlier work
[17] = system: Akt (an mTORC2 substrate); conditions: cited from earlier work
[18] = system: Akt phosphorylation; conditions: mice treated daily for 1 week; cited from earlier work
[19] = Pharmacokinetic properties in C57Bl/6 mice; format: in vivo; conditions: for half-life: read-out: Terminal T1/2 (converted)
Procedure: Pharmacokinetic Properties
The pharmacokinetic properties of compounds of the present invention were evaluated in C57Bl/6 mice and compared with rapamycin. Animals were fasted overnight prior to administration of I-29 or rapamycin (1 mg/kg IV, 10 mg/kg PO, or 2 mg/kg IP). Animals were bled at time intervals for up to 48 hours following administration of compounds. Whole blood from each mouse was indivisually collected in polypropylene tubes and immediately centrifuged. Alloquates of the separated plasma were promptly prepared for HPCL analysis.

[20] = system: glucose uptake in human adipocytes; conditions: 0.01 μM; cited from earlier work
[21] = system: T389 of S6K1 (an mTORC1 substrate); conditions: PC3, HEK-293T, HeLa, and H460 cells, 1 or 24 hour treatments; cited from earlier work
[22] = Glucose tolerance (ipGTT) during chronic treatment in lean C57Bl/6 mice; format: in vivo; conditions: chronic treatment 15 days, I-29 10 mg/kg PO, rapamycin 10 mg/kg IP
Procedure: Assessment of Effect of Chronic Treatment with I-29 on Glucose Tolerance and Insulin Sensitivity in Lean C57Bl/6 Mice
C57Bl/6 mice (n=12; 8 weeks of age) were randomized and baseline measurements (weight, fasting glucose, and fasting insulin) were measured four (4) days prior to the administration of compounds or vehicle. Animals were then treated with I-29 (10 mg/kg PO), rapamycin (10 mg/kg IP) or vehicle (PO or IP) for 19 days. On day 7 and 14 animals were weighed and fed glucose and fed insulin levels were evaluated. Animals were fasted overnight on day 14 and on day 15 fasting insulin and an intraperitoneal glucose tolerance test (ipGTT) were evaluated. On day 19 animals were sacrificed one (1) hour after compound or vehicle administration. Tissues were harvested for evaluating compound levels and pharmacodynamics.

IC50 [7]: < 0.1 nM
IC50 [12]: > 3000 nM
Structure (SMILES): CO[C@@H]1C[C@H](C[C@@H](C)[C@@H]2CC(=O)[C@H](C)/C=C(\C)[C@@H](O)[C@@H](OC)C(=O)[C@H](C)C[C@H](C)/C=C/C=C/C=C(\C)[C@@H](OCCOCCO)C[C@@H]3CC[C@@H](C)[C@@](O)(O3)C(=O)C(=O)N3CCCC[C@H]3C(=O)O2)CC[C@H]1OCCO [I-117, (21E,23E,25E,26E,34R,35S,36R,37R,39S,41S,43S,44S,45R,46R, 55R)-45,55-dihydroxy-43-[2-(2-hydroxyethoxy)ethoxy]-44-[(1R)-2-[(1S,3R, 4R)-4-(2-hydroxyethoxy)-3-methoxy-cyclohexyl]-1-methyl-ethyl]-46-methoxy-34,35,36,37,47,48-hexamethyl-66, 67-dioxa-56-azatricyclohexatriaconta-21,23,25(47),26(48)-tetraene-49, 50,51,52,53-pentone]
inhibition of the mTORC1 pathway ([1]; 90 minutes): strong inhibition
inhibition of the mTORC1 pathway ([1]; 24 hours): strong inhibition
inhibition of mTORC2 (Akt phosphorylation) ([2]; 90 minutes): do not inhibit
inhibition of mTORC2 (Akt phosphorylation) ([2]; 24 hours): do not inhibit
mTORC1 selective @ 24 hrs [3]: YES
inhibition of mTORC2 (Akt phosphorylation) [4]: do not inhibit
inhibition of the mTORC1 pathway [5]: moderate inhibition; also recorded: strong inhibition
inhibition of mTORC2 (Akt phosphorylation) [6]: does not inhibit
inhibition of mTORC2 (Akt phosphorylation) [8]: do not inhibit
inhibition of 4E-BP1 phosphorylation [9]: no inhibition
inhibition of the mTORC1 pathway ([10]; 90 minutes): moderate concentration dependent inhibition
inhibition of the mTORC1 pathway ([11]; PC3 cells, 24 hours): strong inhibition
inhibition of IFN-γ production [12]: did not inhibit
inhibition of the mTORC1 pathway [13]: strong inhibition
inhibition of mTORC2 (Akt phosphorylation) [14]: do not inhibit

Structure (SMILES): CO[C@H]1C[C@@H]2CC[C@@H](C)[C@@](O)(O2)C(=O)C(=O)N2CCCC[C@H]2C(=O)O[C@H]([C@H](C)C[C@@H]2CC[C@@H](O)[C@H](OC)C2)CC(=O)[C@H](C)/C=C(\C)[C@@H](O)[C@@H](OC)C(=O)[C@H](C)C[C@H](C)/C=C/C=C/C=C/1C [Rapamycin, rapamycin]
inhibition of the mTORC1 pathway ([1]; 24 hours): strong inhibition
enhanced survival [15]: ~50%
inhibition of the mTORC2 pathway (Akt phosphorylation) ([6]; 24 and 48 hours): inhibition; also recorded: inhibited
inhibition of mTORC2 (Akt phosphorylation) [6]: dose dependent inhibition
AKT (PKB) Ser473 phosphorylation [16]: reduced
inhibition of pAKT ([17]; HEK-293T cells): Partial inhibition
Akt phosphorylation ([17]; HeLa cells): increase
Akt phosphorylation ([17]; PC3 cells): strongly decreased
inhibition of 4E-BP1 phosphorylation [9]: no inhibition
Akt phosphorylation in the thymus, adipose tissue, heart, and lung [18]: decreased
inhibition of the mTORC1 pathway ([10]; 90 minutes): strong inhibition
inhibition of the mTORC1 pathway ([10]; 24 hours): strong inhibition
F ([19]; 2 mg/kg IP): 35.1%
F ([19]; 10 mg/kg PO): 0.8%
AUC(0-inf) ([19]; mouse, plasma, 1 mg/kg IV): 3630 ng·h/mL
AUC(0-t) ([19]; mouse, plasma, 1 mg/kg IV): 3620 ng·h/mL
MRT inf ([19]; mouse, plasma, 1 mg/kg IV): 6.27 h
clearance ([19]; mouse, plasma, 1 mg/kg IV): 4.6 mL/min/kg
half-life ([19]; mouse, plasma, 1 mg/kg IV): 8.35 h
Vd ([19]; mouse, plasma, 1 mg/kg IV, read-out: Vss): 1.73 L/kg
AUC(0-inf) ([19]; mouse, plasma, 2 mg/kg IP): 2540 ng·h/mL
AUC(0-t) ([19]; mouse, plasma, 2 mg/kg IP): 2480 ng·h/mL
Cmax ([19]; mouse, plasma, 2 mg/kg IP): 614 ng/mL
Tmax ([19]; mouse, plasma, 2 mg/kg IP): 0.25 h
half-life ([19]; mouse, plasma, 2 mg/kg IP): 4.8 h
AUC(0-t) ([19]; mouse, plasma, 10 mg/kg PO): 292 ng·h/mL
Cmax ([19]; mouse, plasma, 10 mg/kg PO): 52.8 ng/mL
Tmax ([19]; mouse, plasma, 10 mg/kg PO): 3 h
inhibition of the mTORC1 pathway (pS6K1) ([11]; PC3 cells, 24 and 48 hours): significant reduction; also recorded: strong inhibition
inhibition of the mTORC1 pathway ([11]; PC3 cells, 30, 15, or 5 minutes): time dependent inhibition
inhibition of the mTORC1 pathway ([11]; PC3 cells, 90 minutes): strong inhibition
inhibition of the mTORC1 pathway ([11]; PC3 cells, 24 hours): strong inhibition
glucose uptake [20]: reduced
inhibition of IFN-γ production [12]: significantly inhibited
IC50 [12]: 2.4 nM
S6K1 phosphorylation [21]: inhibited
glucose intolerance in intraperitoneal glucose tolerance test (ipGTT) [22]: induced glucose intolerance
